US20250064789A1, “KETOAMIDE DERIVATIVES AND PHARMACEUTICAL USES THEREOF” (priority 2022, published 2025)
Like-named read-outs stand apart in the source and are kept apart here.

Target: recombinant SARS-CoV-2 M^pro (Severe acute respiratory syndrome coronavirus 2 (2019-nCoV) (SARS-CoV-2), UniProt P0DTD1)
Test: Inhibition of SARS-CoV-2 M^pro enzyme activity (fluorescent substrate assay)
Format: biochemical
Conditions: inhibition of SARS-CoV-2 M^pro enzyme activity, read-out: IC50

C[C@@H](OCc1ccccc1)C(=O)N[C@H](Cc1ccccc1)C(=O)C(=O)NCc1ccccn1 [Compound 1, (R)-3-((R)-2-(benzyloxy)propionamido)-2-oxo-4-phenyl-N-(pyridin-2-ylmethyl)butyramide]
IC50 (values in nM): 14.6 ± 1.3 nM

C[C@@H](OCc1cc(F)cc(F)c1)C(=O)N[C@H](Cc1ccccc1)C(=O)C(=O)NCc1ccccn1 [Compound 2]
IC50 (values in nM): 17.6 ± 0.4 nM

C[C@@H](OCc1c(F)cccc1F)C(=O)N[C@H](Cc1ccccc1)C(=O)C(=O)NCc1ccccn1 [Compound 3]
IC50 (values in nM): 411 ± 28.2 nM

C[C@@H](OCc1ccc(OC(F)(F)F)cc1)C(=O)N[C@H](Cc1ccccc1)C(=O)C(=O)NCc1ccccn1 [Compound 4]
IC50 (values in nM): 20.4 ± 1.8 nM

C[C@@H](OCc1cccc(OC(F)(F)F)c1)C(=O)N[C@H](Cc1ccccc1)C(=O)C(=O)NCc1ccccn1 [Compound 5]
IC50 (values in nM): 15.4 ± 0.7 nM

C[C@@H](OCc1ccccc1F)C(=O)N[C@H](Cc1ccccc1)C(=O)C(=O)NCc1ccccn1 [Compound 6]
IC50 (values in nM): 48.3 ± 1.2 nM

C[C@@H](OCc1cccc(F)c1)C(=O)N[C@H](Cc1ccccc1)C(=O)C(=O)NCc1ccccn1 [Compound 7]
IC50 (values in nM): 28.5 ± 0.9 nM

C[C@@H](OCc1ccc(F)cc1)C(=O)N[C@H](Cc1ccccc1)C(=O)C(=O)NCc1ccccn1 [Compound 9]
IC50 (values in nM): 12.1 ± 2.5 nM

C[C@H](OCc1ccccc1)C(=O)N[C@H](Cc1ccccc1)C(=O)C(=O)NCc1ccccn1 [Compound 10]
IC50 (values in nM): 113 ± 32.1 nM

C[C@@H](OCc1ccc(Cl)c(Cl)c1)C(=O)N[C@H](Cc1ccccc1)C(=O)C(=O)NCc1ccccn1 [Compound 12]
IC50 (values in nM): 12.3 ± 0.8 nM

C[C@@H](OCc1ccc(Cl)cc1)C(=O)N[C@H](Cc1ccccc1)C(=O)C(=O)NCc1ccccn1 [Compound 13]
IC50 (values in nM): 14.3 ± 0.4 nM

Cc1ccc(CO[C@H](C)C(=O)N[C@H](Cc2ccccc2)C(=O)C(=O)NCc2ccccn2)cc1 [Compound 14]
IC50 (values in nM): 19.3 ± 2.8 nM

C[C@@H](OCc1cc(F)cc(Cl)c1)C(=O)N[C@H](Cc1ccccc1)C(=O)C(=O)NCc1ccccn1 [Compound 15]
IC50 (values in nM): 9.8 ± 0.1 nM

COc1ccc(CO[C@H](C)C(=O)N[C@H](Cc2ccccc2)C(=O)C(=O)NCc2ccccn2)cc1F [Compound 16]
IC50 (values in nM): 18.9 ± 1.7 nM

CC(C)(OCc1ccc(OC(F)(F)F)cc1)C(=O)N[C@H](Cc1ccccc1)C(=O)C(=O)NCc1ccccn1 [Compound 17]
IC50 (values in nM): 19.8 ± 0.2 nM

CC(C)(OCc1ccc(Cl)cc1)C(=O)N[C@H](Cc1ccccc1)C(=O)C(=O)NCc1ccccn1 [Compound 18]
IC50 (values in nM): 13.7 ± 2 nM

CC(C)(OCc1cc(F)cc(Cl)c1)C(=O)N[C@H](Cc1ccccc1)C(=O)C(=O)NCc1ccccn1 [Compound 19]
IC50 (values in nM): 45.2 ± 1.2 nM

CC(C)(OCc1ccc(F)c(F)c1)C(=O)N[C@H](Cc1ccccc1)C(=O)C(=O)NCc1ccccn1 [Compound 20]
IC50 (values in nM): 15.2 ± 0.2 nM

COc1ccc(COC(C)(C)C(=O)N[C@H](Cc2ccccc2)C(=O)C(=O)NCc2ccccn2)cc1F [Compound 21]
IC50 (values in nM): 26.9 ± 3.9 nM

CC(C)(OCc1ccc(F)cc1)C(=O)N[C@H](Cc1ccccc1)C(=O)C(=O)NCc1ccccn1 [Compound 22]
IC50 (values in nM): 18.6 ± 1.7 nM

O=C(NCc1ccccn1)C(=O)[C@@H](Cc1ccccc1)NC(=O)C1(OCc2ccc(Cl)cc2)CC1 [Compound 25]
IC50 (values in nM): 24.9 ± 0.3 nM

CC(C)[C@@H](OCc1ccc(F)cc1)C(=O)N[C@H](Cc1ccccc1)C(=O)C(=O)NCc1ccccn1 [Compound 26]
IC50 (values in nM): 13.9 ± 0.2 nM

C[C@@H](OCc1ccccc1)C(=O)N[C@H](Cc1ccccc1)C(=O)C(=O)NCc1cnccn1 [Compound 27]
IC50 (values in nM): 885.8 ± 0.2 nM

Cc1cccc(CNC(=O)C(=O)[C@@H](Cc2ccccc2)NC(=O)[C@@H](C)OCc2ccccc2)n1 [Compound 28]
IC50 (values given in μM): > 5000 nM

C[C@@H](OCc1ccccc1)C(=O)N[C@H](Cc1ccccc1)C(=O)C(=O)NCc1ncccn1 [Compound 29]
IC50 (values given in μM): > 5000 nM

C[C@@H](OCc1ccccc1)C(=O)N[C@H](Cc1ccccc1)C(=O)C(=O)NCc1ccncn1 [Compound 30]
IC50 (values given in μM): > 5000 nM

C[C@@H](OCc1ccccc1)C(=O)N[C@H](Cc1ccccc1)C(=O)C(=O)N[C@H](C)c1ccccn1 [Compound 31]
IC50 (values given in μM): > 5000 nM
